Source: patent US20200245620A1 (priority 2018, published 2020)
Converted amounts (≈) assume the structure as drawn. “And” between values parts separate entries of the source, which are not always exact repeats. Equal entries are not always repeated. Where two headings read alike, the source gives them in different places.

How the values were obtained:
Fusarium graminearum = test: microbe, parasite or virus in culture; type: cell-based; conditions: for EC50: F.g sensitive strains
Fusarium asiaticum = test: microbe, parasite or virus in culture; type: cell-based
[1] = tested on: Carbendazim-resistant fusarium asiaticum; test: microbe, parasite or virus in culture; type: cell-based; conditions: for inhibition at 1 µg/mL / inhibition at 10 µg/mL / inhibition at 100 µg/mL / inhibition at 1000 µg/mL / inhibition at 10000 µg/mL: Fusarium asiaticum, read-out: DON Biosynthesis Inhibition Rate
wheat scab = type: in vivo
wheat scab fungi = type: in vivo
[2] = tested on: barley scab (fusarium head blight); type: in vivo
barley leaf blight = test: Field efficacy on barley diseases; type: in vivo
Experimental: (§1) The field prevention and control efficacy of the fungicidal composition preparations of embodiments 1-8 on barley diseases was experimented, wherein different doses of single jinggangmycin agent and single ipconazole agent were designed for treatment. In 2014, application was carried out for the first time at the initial stage of barley blooming, application was carried out for the second time after five days, water consumption was 50 kg/Mu, the area of each plot was 50 square meters, each treatment was repeated for three times, and the fungicidal composition was not applied on the blank control. A conventional agent, polyketone wettable powder, was adopted as a control agent. According to a corresponding method specified by the industrial standard of Guidelines for the Field Efficacy Trials of Fungicides issued by the Ministry of Agriculture, the occurrences of barley scab, powdery mildew, rust and leaf blight were investigated at the stage of milky ripeness, disease indexes and prevention and control effects were calculated, and the result is shown in table 8. One hundred and fifty barley ears were sampled randomly every five treated points at the stage of wax ripeness, taken in for threshing and assayed according to the method of application embodiment 1, and toxin contents of the kernels were calculated.

barley powdery mildew = test: Field efficacy on barley diseases; type: in vivo
Experimental: as §1

barley rust = conditions: in vivo
[3] = tested on: barley scab (fusarium head blight); type: in vivo; remark: listed apart in the source
leaf blight of wheat = test: Field efficacy on wheat diseases; type: in vivo; conditions: 40 g a.i./Mu
Experimental: (§2) The field prevention and control efficacy of the fungicidal composition preparations of embodiments 1-8 on wheat diseases was experimented. The experimental field was arranged in Jiangsu Yancheng Xinyang Farm. The wheat variety was Huaimai 33. At the initial stage of wheat blooming, a Nongjiale 16L knapsack electric sprayer was adopted to carry out application for the first time, application was carried out for the second time after five days, water consumption was 50 kg/Mu, the area of each plot was 50 square meters, each treatment was repeated for three times, and the fungicidal composition was not applied on the blank control. Meanwhile, 80 g of carbendazim wettable powder which was 50 percent was used as a control agent for treatment per mu. According to a corresponding method specified by the industrial standard of Guidelines for the Field Efficacy Trials of Fungicides issued by the Ministry of Agriculture, the occurrences of powdery mildew, rust, sheath blight and leaf blight of wheat were investigated at the stage of milky ripeness, disease indexes and prevention and control effects were calculated, and the result is shown in table 7.

powdery mildew of wheat = test: Field efficacy on wheat diseases; type: in vivo; conditions: 40 g a.i./Mu
Experimental: as §2

sheath blight of wheat = test: Field efficacy on wheat diseases; type: in vivo; conditions: 40 g a.i./Mu
Experimental: as §2

rust of wheat = conditions: in vivo
Tri5 gene = type: cell-based, fusarium asiaticum
[4] = Fusarium asiaticum, read-out: Growth Inhibition Rate

## CCOC(=O)C(C#N)=C(N)c1ccccc1 [Phenamacril, phenamacril]
Fusarium graminearum
  EC50: 0.165 µg/mL (≈ 0.763 µM)

## CC(C)C1CCC(Cc2ccc(Cl)cc2)C1(O)Cn1cncn1 (stereo not shown) [Ipconazole]
Fusarium graminearum; Fusarium graminearum
  EC50: 0.89 µg/mL (≈ 2.67 µM)
Fusarium graminearum; Fusarium graminearum, read-out: Growth Inhibition Rate, sensitive strains, 0.0125 μg/mL
  inhibition at 0.0125 µg/mL: 28.9%
Fusarium graminearum; Fusarium graminearum, read-out: Growth Inhibition Rate, sensitive strains, 0.025 μg/mL
  inhibition at 0.025 µg/mL: 38.3%
Fusarium graminearum; Fusarium graminearum, read-out: Growth Inhibition Rate, sensitive strains, 0.05 μg/mL
  inhibition at 0.05 µg/mL: 40.8%
Fusarium graminearum; Fusarium graminearum, read-out: Growth Inhibition Rate, sensitive strains, 0.1 μg/mL
  inhibition at 0.1 µg/mL: > 50%
Fusarium graminearum; Fusarium graminearum, read-out: Growth Inhibition Rate, sensitive strains, 0.2 μg/mL
  inhibition at 0.2 µg/mL: 77.1%
Fusarium graminearum; sensitive strains, 0.0125 μg/mL
  Average Fungal Colony Diameter: 53.5 mm
Fusarium graminearum; sensitive strains, 0.025 μg/mL
  Average Fungal Colony Diameter: 46.4 mm
Fusarium graminearum; sensitive strains, 0.05 μg/mL
  Average Fungal Colony Diameter: 44.5 mm
Fusarium graminearum; sensitive strains, 0.1 μg/mL
  Average Fungal Colony Diameter: 31.8 mm
Fusarium graminearum; sensitive strains, 0.2 μg/mL
  Average Fungal Colony Diameter: 17.2 mm
Fusarium asiaticum; [4]
  inhibition at 0.0125 µg/mL: 29.5%
  inhibition at 0.025 µg/mL: 38.6%
  inhibition at 0.05 µg/mL: 41.7%
  inhibition at 0.1 µg/mL: > 50%
  inhibition at 0.2 µg/mL: 76.6%
[1]
  DON Biosynthesis Inhibition Rate: 0.36% and 0.31%
  Toxin Production Capability: 87.68 μgDON/g by dry weight of hyphae and 52.16 μgDON/g by dry weight of hyphae
  inhibitory effects on the toxin biosynthesis capability of the fusaria: does not have significant inhibitory effects
Wheat scab; ipconazole 4 g a.i./Mu
  Disease Index Prevention Effect, Actual Prevention Effect: 42.65%
Wheat scab; ipconazole 6 g a.i./Mu
  Disease Index Prevention Effect, Actual Prevention Effect: 53.45%
Wheat scab; ipconazole 8 g a.i./Mu
  Disease Index Prevention Effect, Actual Prevention Effect: 67.58%
Wheat scab; ipconazole 10 g a.i./Mu
  Disease Index Prevention Effect, Actual Prevention Effect: 72.41%
Wheat scab; ipconazole 16 g a.i./Mu
  Disease Index Prevention Effect, Actual Prevention Effect: 80.33%
Wheat scab fungi; ipconazole 4 g a.i./Mu
  DON Contamination Reduction Rate: 49.11%
  Grain Toxin Content: 5.41 μg of toxin/g of kernels
Wheat scab fungi; ipconazole 6 g a.i./Mu
  DON Contamination Reduction Rate: 59.08%
  Grain Toxin Content: 4.35 μg of toxin/g of kernels
Wheat scab fungi; ipconazole 8 g a.i./Mu
  DON Contamination Reduction Rate: 61.24%
  Grain Toxin Content: 4.12 μg of toxin/g of kernels
Wheat scab fungi; ipconazole 10 g a.i./Mu
  DON Contamination Reduction Rate: 63.78%
  Grain Toxin Content: 3.85 μg of toxin/g of kernels
Wheat scab fungi; ipconazole 16 g a.i./Mu
  DON Contamination Reduction Rate: 71.50%
  Grain Toxin Content: 3.03 μg of toxin/g of kernels
[2]; ipconazole 5 g a.i./Mu
  Disease Index Prevention Effect, Fusarium head blight: 43.84%
[2]; ipconazole 10 g a.i./Mu
  Disease Index Prevention Effect, Fusarium head blight: 62.41%
Barley leaf blight; ipconazole 5 g a.i./Mu
  Disease Index Prevention Effect, Leaf Blight: 64.29%
Barley leaf blight; ipconazole 10 g a.i./Mu
  Disease Index Prevention Effect, Leaf Blight: 75.34%
Barley powdery mildew; ipconazole 5 g a.i./Mu
  Disease Index Prevention Effect, Powdery Mildew: 76.24%
Barley powdery mildew; ipconazole 10 g a.i./Mu
  Disease Index Prevention Effect, Powdery Mildew: 85.64%
Barley rust
  Disease Index Prevention Effect, Rust: 74.25% and 82.65%
[3]; ipconazole 5 g a.i./Mu
  Grain Toxin Content: 3.54 mg of DON/Kg of kernel
  Toxin Reduction Percentage: 58.50%
[3]; ipconazole 10 g a.i./Mu
  Grain Toxin Content: 2.57 mg of DON/Kg of kernel
  Toxin Reduction Percentage: 69.87%

## COC(=O)Nc1nc2ccccc2[nH]1 [Carbendazim, carbendazim]
Fusarium graminearum; Fusarium graminearum
  EC50: 0.45 µg/mL (≈ 2.35 µM)
Fusarium asiaticum; Fusarium asiaticum
  EC50: 0.45 µg/mL (≈ 2.35 µM)
Wheat scab; 40 g a.i./Mu
  Disease Index Prevention Effect, Actual Prevention Effect: 67.5%
Wheat scab fungi; 40 g a.i./Mu
  DON Contamination Reduction Rate: 58.42%
  Grain Toxin Content: 4.42 μg of toxin/g of kernels
Leaf blight of wheat
  Disease Index Prevention Effect, Leaf Blight: 48.53%
Powdery mildew of wheat
  Disease Index Prevention Effect, Powdery Mildew: 52.62%
Sheath blight of wheat
  Disease Index Prevention Effect, Sheath Blight: 44.65%
Rust of wheat
  Disease Index Prevention Effect, Rust: 61.24%

## OCC1=C[C@H](N[C@H]2C[C@H](CO)[C@@H](O[C@@H]3O[C@H](CO)[C@@H](O)[C@H](O)[C@H]3O)[C@H](O)[C@H]2O)[C@H](O)[C@@H](O)[C@@H]1O [Jinggangmycin]
Fusarium graminearum; Fusarium graminearum, read-out: Growth Inhibition Rate, sensitive strains, 50 μg/mL
  inhibition at 50 µg/mL: 6.5 to 7.8%
Fusarium graminearum; jinggangmycin 0.1-50 μg/mL with ipconazole 0.05 or 0.1 μg/mL
  synergistic effect for ipconazole in inhibiting hyphal growth in vitro: does not have a synergistic effect
Fusarium graminearum; sensitive strains, 0.1 μg/mL
  Average Fungal Colony Diameter: 76.3 mm
Fusarium graminearum; sensitive strains, 1 μg/mL
  Average Fungal Colony Diameter: 76.2 mm
Fusarium graminearum; sensitive strains, 10 μg/mL
  Average Fungal Colony Diameter: 75.4 mm
Fusarium graminearum; sensitive strains, 50 μg/mL
  Average Fungal Colony Diameter: 70.3 mm
  Growth Inhibition Rate: 6.52%
Fusarium asiaticum
  Average Fungal Colony Diameter: 75.6 mm and 69.4 mm and 76.3 mm
  inhibitory activity on the growth in vitro: almost does not have inhibitory activity
  synergistic effect for ipconazole in inhibiting hyphal growth in vitro: does not have a synergistic effect
Fusarium asiaticum; [4]
  inhibition at 50 µg/mL: 6.5 to 7.8%
[1]; 168 h
  inhibition at 1 µg/mL: 28.6%
  inhibition at 10 µg/mL: 35.5%
  inhibition at 100 µg/mL: 45.2%
  inhibition at 1000 µg/mL: 65.5%
  inhibition at 10000 µg/mL: 75.9%
[1]; 336 h
  inhibition at 1 µg/mL: 1.7%
  inhibition at 10 µg/mL: 7.87%
  inhibition at 100 µg/mL: 29.9%
  inhibition at 1000 µg/mL: 57%
  inhibition at 10000 µg/mL: 75.4%
Tri5 gene
  Rate of Inhibition on Relative Expression Level of Tri5 Gene: 66% and 84% and 87% and 90% and 59%
Wheat scab; 2 g a.i./Mu
  Disease Index Prevention Effect, Actual Prevention Effect: 0%
Wheat scab; jinggangmycin 4 g a.i./Mu
  Disease Index Prevention Effect, Actual Prevention Effect: 8.65%
Wheat scab; jinggangmycin 8 g a.i./Mu
  Disease Index Prevention Effect, Actual Prevention Effect: 10.24%
Wheat scab; jinggangmycin 10 g a.i./Mu
  Disease Index Prevention Effect, Actual Prevention Effect: 14.31%
Wheat scab; jinggangmycin 12 g a.i./Mu
  Disease Index Prevention Effect, Actual Prevention Effect: 16.54%
Wheat scab; jinggangmycin 16 g a.i./Mu
  Disease Index Prevention Effect, Actual Prevention Effect: 18.65%
Wheat scab fungi; 2 g a.i./Mu
  DON Contamination Reduction Rate: 16.18%
  Grain Toxin Content: 8.91 μg of toxin/g of kernels
Wheat scab fungi; jinggangmycin 4 g a.i./Mu
  DON Contamination Reduction Rate: 19.00%
  Grain Toxin Content: 8.61 μg of toxin/g of kernels
Wheat scab fungi; jinggangmycin 8 g a.i./Mu
  DON Contamination Reduction Rate: 37.72%
  Grain Toxin Content: 6.62 μg of toxin/g of kernels
Wheat scab fungi; jinggangmycin 10 g a.i./Mu
  DON Contamination Reduction Rate: 41.58%
  Grain Toxin Content: 6.21 μg of toxin/g of kernels
Wheat scab fungi; jinggangmycin 12 g a.i./Mu
  DON Contamination Reduction Rate: 50.99%
  Grain Toxin Content: 5.21 μg of toxin/g of kernels
Wheat scab fungi; jinggangmycin 16 g a.i./Mu
  DON Contamination Reduction Rate: 54.37%
  Grain Toxin Content: 4.85 μg of toxin/g of kernels
[2]; jinggangmycin 5 g a.i./Mu
  Disease Index Prevention Effect, Fusarium head blight: 4.54%
[2]; jinggangmycin 10 g a.i./Mu
  Disease Index Prevention Effect, Fusarium head blight: 12.58%
Barley leaf blight; jinggangmycin 5 g a.i./Mu
  Disease Index Prevention Effect, Leaf Blight: 0%
Barley leaf blight; jinggangmycin 10 g a.i./Mu
  Disease Index Prevention Effect, Leaf Blight: 0%
Barley powdery mildew; jinggangmycin 5 g a.i./Mu
  Disease Index Prevention Effect, Powdery Mildew: 0%
Barley powdery mildew; jinggangmycin 10 g a.i./Mu
  Disease Index Prevention Effect, Powdery Mildew: 0%
Barley rust
  Disease Index Prevention Effect, Rust: 0%
[3]; jinggangmycin 5 g a.i./Mu
  Grain Toxin Content: 5.28 mg of DON/Kg of kernel
  Toxin Reduction Percentage: 38.10%
[3]; jinggangmycin 10 g a.i./Mu
  Grain Toxin Content: 4.62 mg of DON/Kg of kernel
  Toxin Reduction Percentage: 45.84%
